The target in this test is N-formyl peptide receptor 2 (Homo sapiens) (UniProt P25090). Nature of the test: FPRL1 binding inhibitor potency, dose response, cell-based, FPR counter-screen, fluorescent ligand (AID 520). As to conditions: FPRL1-expressing cells, fluorescent ligand binding inhibition; for Ki: measured here: FPRL1 binding Ki. (The purpose of a counterscreen is to sort out artefacts and off-target activity.)

The source made the active and inactive calls. How the calls were made is not given here.

In general, Ki refers to a dissociation constant, usually derived from enzyme kinetics or from competition with a known ligand. A low value points to tighter binding. In general, IC50 refers to the concentration that gives 50% inhibition.

Chain of N-formyl peptide receptor 2 (Homo sapiens) (P25090 whole entry, looked up): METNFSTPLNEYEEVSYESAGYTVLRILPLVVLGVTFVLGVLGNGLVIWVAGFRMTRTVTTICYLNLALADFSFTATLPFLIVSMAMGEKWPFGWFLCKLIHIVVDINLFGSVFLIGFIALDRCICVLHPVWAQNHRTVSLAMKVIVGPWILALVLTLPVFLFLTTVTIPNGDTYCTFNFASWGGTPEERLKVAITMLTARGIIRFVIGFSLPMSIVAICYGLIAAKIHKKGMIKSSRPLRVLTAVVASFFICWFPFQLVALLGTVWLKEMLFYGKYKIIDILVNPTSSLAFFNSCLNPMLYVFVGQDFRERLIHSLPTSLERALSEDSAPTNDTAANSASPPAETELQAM

In turn, `COc1ccccc1-n1c(CNC(=O)c2ccco2)nnc1SCC(=O)Nc1ccc(F)cc1` displayed a Ki greater than 40.3 µM. Turning to `COCc1cc(C2C(C(=O)c3ccco3)=C(O)C(=O)N2CCOCCO)ccc1O` (stereo not drawn), the IC50 was > 66.7 µM (inactive) and the Ki is greater than 40.3 µM. On to `CCC(=O)Nc1c(C#N)c2nc3ccccc3nc2n1-c1ccccc1C`, for which the inhibition constant Ki was greater than 40.3 µM. On to `CCCCn1c(NC(=O)CC)c(C#N)c2nc3ccccc3nc21`, for which the Ki was greater than 40.3 µM. Still for that read-out and setting: with `COc1ccccc1-c1c(C)oc2cc(OC(=O)c3ccco3)ccc2c1=O` the figure was greater than 40.3 µM. For the compound `CCCCNC(=O)c1sc(=S)n2c1[nH]c(=O)c1ccccc12`, the Ki was greater than 40.3 µM. For `CCOC(=O)c1c(C)[nH]c(C=Nc2ccccc2)c1O`, the Ki is greater than 40.3 µM. `Cc1cc(SCC(N)=O)nc(SCC(=O)c2ccccc2)n1` gave a Ki greater than 40.3 µM. For `Cc1[nH]n2c(=O)c(C#N)c(-c3ccccc3)nc2c1-c1ccccc1`, the Ki was greater than 40.3 µM. Take `Cc1ccc(Nc2nc(C3CC3)cs2)cc1`: the Ki was greater than 40.3 µM. `O=C(Nc1nnc(-c2ccccc2Cl)o1)c1ccc(S(=O)(=O)N2CCCCCC2)cc1` had a Ki greater than 40.3 µM.

`CC(C)OC(=O)c1cc(NC(=O)C2C3CCC(O3)C2C(=O)O)cc(C(=O)OC(C)C)c1` (stereo not drawn) yielded a Ki greater than 40.3 µM. As for `O=S(=O)(Nc1cccc2ncccc12)c1cccs1`, the inhibition constant Ki was greater than 40.3 µM. `O=C(O)CC1Oc2ccc(Cl)cc2NC1=O` (stereo not drawn): the Ki was greater than 40.3 µM.

Take `O=C(NC1CCCCC1)c1sc(=S)n2c1[nH]c(=O)c1ccccc12`: the inhibitory constant (Ki) was greater than 40.3 µM. The same measure, in the same setting: the same measure for `O=C(O)C1CCCCC1C(=O)Nc1ccccc1Cl` (stereo not drawn): greater than 40.3 µM.

With `COc1ccc(C2/C(=C(/O)c3ccccc3)C(=O)C(=O)N2CC(C)O)c(OC)c1` (stereo not drawn), the IC50 was > 66.7 µM (inactive) and the Ki was greater than 40.3 µM.

Regarding `Cc1cc(N2C(=O)C(=O)/C(=C(/O)c3ccc(F)cc3)C2c2cccc(Br)c2)no1` (stereo not drawn), the IC50 was > 66.7 µM (inactive) and the Ki is greater than 40.3 µM. Turning to `CCOc1ccc(C2C(C(=O)c3ccco3)=C(O)C(=O)N2CCCn2ccnc2)cc1` (stereo not drawn), the IC50 is > 66.7 µM (inactive) and the Ki is greater than 40.3 µM.

For the compound `CCOc1cccc(/C(O)=C2/C(=O)C(=O)N(CCOC)C2c2ccc(C)o2)c1` (stereo not drawn), the IC50 was > 66.7 µM (inactive) and the Ki is greater than 40.3 µM. Compound `C=CCn1c(SCCCC)nc(O)cc1=O` registered a Ki greater than 40.3 µM.

Take `Cc1ccc(C2C(C(=O)c3sc(C)nc3C)=C(O)C(=O)N2CCN2CCOCC2)o1` (stereo not drawn): the IC50 is > 66.7 µM (inactive) and the Ki was greater than 40.3 µM.

Compound `CCCNC(=O)CS(=O)(=O)Cc1nc(-c2cccc(OC)c2)oc1C` displayed an inhibitory constant (Ki) greater than 40.3 µM. In the case of `Cc1cc2oc(C(=O)NC3CCS(=O)(=O)C3)c(C)c2cc1C` (stereo not drawn), the Ki is greater than 40.3 µM.

As for `COc1ccc2c(=O)c(-c3cnn(-c4ccccc4)c3)c(C)oc2c1`, the Ki was greater than 40.3 µM. `O=C(NC1CCCC1)C1CC1c1ccccc1` (stereo not drawn) had a Ki greater than 40.3 µM. On to `CCCC(=O)Nc1cc(-c2cn3cccnc3n2)ccc1OC`, for which the Ki amounted to 13.8 µM. On the same count and under the same terms, with `Cc1cccc(-n2nc3c(c2NC(=O)c2ccco2)CSC3)c1C` the figure was greater than 40.3 µM; with `Cc1nc2c(C#N)c[nH]n2c(=O)c1Cc1ccccc1`, greater than 40.3 µM.

With `COc1ccc(-c2cc(C(F)(F)F)nc(N3CCCCC3)n2)cc1OC`, the Ki is greater than 40.3 µM. For `COc1ccc(OC)c(C2C(C(=O)c3ccco3)=C(O)C(=O)N2CCCN2CCOCC2)c1` (stereo not drawn), the IC50 is > 66.7 µM (inactive) and the inhibitory constant (Ki) is greater than 40.3 µM.

As to `CCOC(=O)c1c(NC(=O)C2C3CCC(O3)C2C(=O)O)sc(C)c1-c1ccc(C)cc1` (stereo not drawn), the Ki is greater than 40.3 µM.

`COc1ccccc1C1/C(=C(/O)c2ccccc2)C(=O)C(=O)N1CCO` (stereo not drawn): the IC50 was > 66.7 µM (inactive) and the Ki was greater than 40.3 µM. Consider `CCC(SC1=Nc2ccccc2C2=NC(CC(C)C)C(=O)N12)C(=O)Nc1ccc2c(c1)OCO2` (stereo not drawn), for which the Ki is greater than 40.3 µM.

`COc1cccc(-c2nc(CS(=O)(=O)CC(=O)NCCC(C)C)c(C)o2)c1` showed a Ki greater than 40.3 µM. As to `O=C(NCc1cccnc1)C1c2ccccc2C(=O)N1C1CCCCCC1` (stereo not drawn), the Ki was greater than 40.3 µM. In the case of `C=CCOc1cccc(C2C(C(=O)c3ccco3)=C(O)C(=O)N2CCN2CCOCC2)c1` (stereo not drawn), the IC50 was > 66.7 µM (inactive) and the Ki was greater than 40.3 µM. In the case of `O=C(C1=C(O)C(=O)N(CCOCCO)C1c1cccs1)c1cccs1` (stereo not drawn), the IC50 is > 66.7 µM (inactive) and the Ki was greater than 40.3 µM. With `OCc1nc2ccccc2n1CC(O)Cn1ccc2ccccc21` (stereo not drawn), the inhibitory constant (Ki) is greater than 40.3 µM. `CCOC(=O)c1oc2cc(O)ccc2c(=O)c1-c1ccccc1OC` registered a Ki greater than 40.3 µM. Take `COCCN1C(=O)C(O)=C(C(=O)c2ccco2)C1c1cccc(Oc2ccccc2)c1` (stereo not drawn): the IC50 is > 66.7 µM (inactive) and the Ki was greater than 40.3 µM. The compound `CCOc1ccccc1Oc1c(C)oc2cc(OC(=O)c3ccco3)ccc2c1=O` returned an inhibition constant (Ki) greater than 40.3 µM.

Consider `C=CCN1C(=O)C2(/C(=C(\O)c3ccc4c(c3)OCCO4)C(=O)C(=O)N2CCCOC)c2ccccc21` (stereo not drawn), for which the IC50 is > 66.7 µM (inactive) and the Ki is greater than 40.3 µM.

As for `COc1ccc(OC)c(NC(=O)C2C3CCC(C3=C(C)C)C2C(=O)O)c1` (stereo not drawn), the Ki was greater than 40.3 µM. Consider `Nc1ccc(Nc2ccccc2)cc1`, for which the Ki is greater than 40.3 µM. As to `COc1ccc(-c2c(C)oc3c(CN4CCN(CCO)CC4)c(O)ccc3c2=O)cc1OC`, the Ki is greater than 40.3 µM. `Cc1csc(NC(=O)CCn2c(=O)oc3ccccc32)n1` came in with a Ki greater than 40.3 µM. For `COC(=O)[C@H](C(C)C)n1c(C)c(C(C)=O)c(C(C)=O)c1C`, the Ki was greater than 40.3 µM. On the same count and under the same terms, the same measure for `CC1Oc2ccccc2N(Cc2ccccc2Cl)C1=O` (stereo not drawn): greater than 40.3 µM. With `COc1ccc(/C(O)=C2/C(=O)C(=O)N(CCN3CCOCC3)C2c2ccc(C)cc2)cc1` (stereo not drawn), the IC50 is > 66.7 µM (inactive) and the Ki was greater than 40.3 µM. Regarding `CCC(Sc1nc2c(c(=O)[nH]1)CCC2)C(=O)Nc1cccc(OC)c1` (stereo not drawn), the Ki is greater than 40.3 µM. For the compound `Cc1ccc(C(=O)C2=C(O)C(=O)N(CCCn3ccnc3)C2c2ccc(OC(C)C)cc2)o1` (stereo not drawn), the IC50 is > 66.7 µM (inactive) and the Ki was greater than 40.3 µM. `CCCCC1C(=O)N(c2ccccc2)N(c2ccccc2)C1=O`: the IC50 is > 66.7 µM (inactive) and the Ki was greater than 40.3 µM. In turn, `CCN1C(=O)/C(=C2\SC(=S)N(CCCOC)C2=O)c2ccccc21` displayed a Ki greater than 40.3 µM. As for `CCOc1cc(C2C(C(=O)c3ccc(C)o3)=C(O)C(=O)N2CCc2ccccc2)ccc1O` (stereo not drawn), the IC50 is > 66.7 µM (inactive) and the Ki was greater than 40.3 µM.

`CCCNC(=S)Nc1ccc(Nc2ccccc2)cc1` had a Ki greater than 40.3 µM. For the compound `CCOc1cc(C2C(C(=O)c3ccco3)=C(O)C(=O)N2CCc2ccccc2)ccc1O` (stereo not drawn), the IC50 was > 66.7 µM (inactive) and the Ki is greater than 40.3 µM. The corresponding values for `COc1cc(C2/C(=C(\O)c3ccc4c(c3)CC(C)O4)C(=O)C(=O)N2CCCn2ccnc2)ccc1O` (stereo not drawn) are > 66.7 µM (inactive) and greater than 40.3 µM.

`CCOC(=O)N1CCC(NC(=O)c2cc(C(=O)Nc3ccc(OC)c(OC)c3)ccc2CO)CC1` registered a Ki greater than 40.3 µM.

`Cc1[nH]n2c(=O)c3c(nc2c1-c1cccc2ccccc12)CCC3` displayed a Ki greater than 40.3 µM. For the compound `CCOc1cccc(/C(O)=C2/C(=O)C(=O)N(Cc3cccnc3)C2c2ccco2)c1` (stereo not drawn), the IC50 was > 66.7 µM (inactive) and the Ki was greater than 40.3 µM. Regarding `COc1ccc(C2C(C(=O)c3ccco3)=C(O)C(=O)N2CCc2ccccc2)cc1OC` (stereo not drawn), the IC50 was > 66.7 µM (inactive) and the inhibitory constant (Ki) was greater than 40.3 µM. In the case of `CC(C)CN(CC(C)C)C(=O)CS(=O)(=O)Cc1ccccc1`, the Ki was greater than 40.3 µM. Turning to `COc1cc(C2C(C(=O)c3cccs3)=C(O)C(=O)N2Cc2ccco2)cc(OC)c1OC` (stereo not drawn), the IC50 was > 66.7 µM (inactive) and the Ki is greater than 40.3 µM. Take `COc1ccc(CC(=O)Nc2ccc(-c3nnc(-c4ccc(C)cc4)o3)cc2)cc1`: the Ki is greater than 40.3 µM.

On to `O=C(C1=C(O)C(=O)N(Cc2ccccc2)C1c1cccnc1)c1ccco1` (stereo not drawn), for which the IC50 is > 66.7 µM (inactive) and the Ki is greater than 40.3 µM. On to `C=CCOc1ccc(C2C(C(=O)c3ccco3)=C(O)C(=O)N2Cc2cccnc2)cc1` (stereo not drawn), for which the IC50 was > 66.7 µM (inactive) and the Ki was greater than 40.3 µM. As to `CCOC(=O)CSc1nnc(CNC(=O)c2cc(OCC)c(OCC)c(OCC)c2)n1C`, the Ki was determined as 6.7 µM. Still for that read-out and setting: with `CCOC(=O)Nc1ccc(OC)cc1S(=O)(=O)N1CCCCC1` the figure was greater than 40.3 µM. As for `CCOc1ccc(C2C(C(=O)c3cccs3)=C(O)C(=O)N2CCCn2ccnc2)cc1` (stereo not drawn), the IC50 is > 66.7 µM (inactive) and the Ki was greater than 40.3 µM.

For the compound `CCCOc1ccc2c(=O)c(N3C(=O)c4ccccc4C3=O)c(C)oc2c1`, the Ki was greater than 40.3 µM. Turning to `C[N+]1(C)[C@@H]2CC(OC(=O)[C@H](CO)c3ccccc3)C[C@H]1[C@@H]1O[C@@H]12` (stereo partly drawn), the inhibition constant Ki was greater than 40.3 µM.

In turn, `Cc1c(C(=O)NC2CCCc3ccccc32)oc2ccc(S(=O)(=O)N3CCOCC3)cc12` (stereo not drawn) gave an inhibitory constant (Ki) greater than 40.3 µM.

For `COc1ccc(Cl)cc1-n1c(=S)sc2c(=O)[nH]c(SCC(=O)NCC3CCCO3)nc21` (stereo not drawn), the Ki is greater than 40.3 µM. As for `O=C(C1=C(O)C(=O)N(Cc2ccco2)C1c1ccccc1)c1cccs1` (stereo not drawn), the IC50 is > 66.7 µM (inactive) and the Ki was greater than 40.3 µM. `CSc1ccccc1NS(=O)(=O)c1ccccc1` gave a Ki greater than 40.3 µM.

Consider `COc1ccccc1NC(=O)CSc1nnc(Cn2nnc(-c3ccccc3)n2)n1-c1ccccc1`, for which the Ki is greater than 40.3 µM. `CCCC(=O)Nc1c2c(nn1-c1ccc(OC)cc1)CS(=O)C2` (stereo not drawn) gave a Ki greater than 40.3 µM. With `CCC(CCC(=O)Nc1cccc(C(=O)O)c1)C(=O)O` (stereo not drawn), the Ki is greater than 40.3 µM. The same measure, in the same setting: with `Cc1ccc(C)c(-n2c(CNC(=O)c3ccco3)nnc2SCC(=O)N2CCc3ccccc32)c1` the figure was greater than 40.3 µM; with `CCOC(=O)c1c(-c2ccc(-c3ccccc3)cc2)csc1NC(=O)C1C2CCC(O2)C1C(=O)O` (stereo not drawn), greater than 40.3 µM.

Regarding `COC(=O)c1[nH]c(C)c(/C(O)=C2\C(=O)C(=O)N(CCN3CCOCC3)C2c2cccnc2)c1C` (stereo not drawn), the IC50 was > 66.7 µM (inactive) and the Ki is greater than 40.3 µM.

Values taken from PubChem BioAssay AID520 (NMMLSC, 2006).
